The values below come from patent publication US20260216197A1, “WRN HELICASE INHIBITOR” (SUZHOU PUHE BIOPHARMA CO., LTD., priority 2022, published 2026).

Data set [1] relates to MSI-H colorectal cancer SW48 cell line. Kind of data set: 2D anti-proliferative activity, MSI-H SW48 cells (CTG, 5 days). It is filed as cell-based. To be noted: for IC50: 5 days; for inhibition at 38.15 pM: 0.038146973 nM; for inhibition at 0.000152588 µM: 0.152587891 nM; for inhibition at 0.000610352 µM: 0.610351563 nM; for inhibition at 0.00244141 µM: 2.44140625 nM; for inhibition at 0.00976562 µM: 9.765625 nM; for inhibition at 0.0390625 µM: 39.0625 nM; for inhibition at 0.15625 µM: 156.25 nM; for inhibition at 0.625 µM: 625 nM; for inhibition at […]: 2500 nM; for inhibition at 10 µM: 10000 nM. Here is the method:
The molecules of the present disclosure were tested for their anti-proliferative activity against MSI-H tumor cells.
The proliferation of tumor cells with microsatellite instability MSI-H is sensitive to WRN inhibitors, while the proliferation of microsatellite stable (MSS) tumor cells is insensitive to WRN inhibitors. By testing the activities of the two, it is shown that the molecules of the present disclosure have an inhibitory and synthetic lethal effect on WRN at the cellular level.
(§1) The MSI-unstable SW48 colorectal cancer cells were cultured in RPMI 1640 medium containing 10% FBS and 1% penicillin-streptomycin in a 37° C., 5% CO2 constant temperature incubator. A 40 μL cell suspension was added to each well of a 384-well microplate. Using Echo, 40 nL of compounds at different concentrations was dispensed into each well, followed by incubation in a 37° C., 5% CO2 constant temperature incubator for 5 days. Then, 40 μL of CTG solution (Promega, Cat No. G7573) was added to each well, and the plate was incubated in the dark in a 37° C., 5% CO2 constant temperature incubator for 30 minutes. Luminescence was measured using an Envision multi-function microplate reader (Perkin Elmer, Model: Envision 2104). The luminescent signal was proportional to the amount of ATP in the system, and the amount of ATP directly represented the number of living cells in the system.

Data set [2] concerns MSS colorectal cancer HT-29 cell line. Kind of data set: 2D anti-proliferative activity, MSS HT-29 cells (CTG, 5 days). The data set is classed as cell-based. The conditions noted are these: Homo sapiens, 120 h. Here is the method:
The molecules of the present disclosure were tested for their anti-proliferative activity against MSS tumor cells.
as §1, with “MSS HT-29” for “MSI-unstable SW48”, “McCoy's 5A” for “RPMI 1640”

The nature of data set [3]: Liver microsome stability test. The data set is classed as in vitro ADME. The conditions noted are these: human liver microsomes 0.5 mg/mL, compound 1 μM, NADPH 1 mM, 60 minutes; for microsomal CLint at 1 μM: read-out: Human Clint μL/min/mg Protein. Here is the method:
The liver microsome stability test of the compounds is as follows:
The compounds of the present disclosure were subjected to a liver microsome stability test. The compounds to be tested were co-incubated with liver microsomes of different species with or without the addition of NADPH. The final concentration of the compounds to be tested in the test system was 1 μM, the final concentration of NADPH was 1 mM, and the final concentration of liver microsomes was 0.5 mg/mL.

The target in the next data set is WRN helicase (Homo sapiens, UniProt Q14191). Kind of data set: WRN helicase hydrolysis/unwinding of double-stranded DNA (fluorescence). The data set is classed as biochemical. As to the method:
The activity of the molecules of the present disclosure on the hydrolysis of double-stranded PP-6TR DNA by WRN helicase was tested.
The working solution and buffer were prepared, and the test compound was dissolved in DMSO followed by a4-fold dilution (with a final concentration of 10 μM as the starting concentration). Then, 0.2 μL of the test compound solution was added to a384-well plate, followed by 10 μL of (2×) WRN enzyme solution. The mixture was incubated in the dark for 30 minutes, after which 10 μL of substrate detection solution containing double-stranded DNA was added to initiate the reaction (DNA length: 19 bp, labeled with TAMRA at the 3′ end and BHQ2 at the 5′ end). The mixture was incubated at room temperature for 60 minutes. The inhibitory activity (IC50) against the WRN enzyme was calculated based on the fluorescence change (Ex530/Em590) between the blank group (DMSO) and the compound group.

Data set [4] is described as follows: Pharmacokinetic evaluation in mice. It is filed as in vivo, CD1 female mice. The conditions noted are these: PO 10 mg/kg vs IV 2 mg/kg. Here is the method: CD1 female mice were used as test animals and the drug was administered orally/intravenously (oral dosage: 10 mg/kg, intravenous dosage: 2 mg/kg).
Assay protocol: The oral group consisted of 3 mice per group (vehicle: 10% Hβ-CD-pH7.4), and the intravenous group consisted of 3 mice per group. […] The blood concentrations in plasma after oral and intravenous administration of mice were determined by LC/MS/MS, respectively.

Where [5] appears, read: Homo sapiens, read-out: Average value/ Inhibition rate.
[6] abbreviates: Homo sapiens, read-out: Test 1/ Inhibition rate.
Setting [7] is: Homo sapiens, read-out: Test 2/ Inhibition rate.

Where two headings read alike, the source gives them in different places.

Sequence of WRN helicase (Q14191 whole entry): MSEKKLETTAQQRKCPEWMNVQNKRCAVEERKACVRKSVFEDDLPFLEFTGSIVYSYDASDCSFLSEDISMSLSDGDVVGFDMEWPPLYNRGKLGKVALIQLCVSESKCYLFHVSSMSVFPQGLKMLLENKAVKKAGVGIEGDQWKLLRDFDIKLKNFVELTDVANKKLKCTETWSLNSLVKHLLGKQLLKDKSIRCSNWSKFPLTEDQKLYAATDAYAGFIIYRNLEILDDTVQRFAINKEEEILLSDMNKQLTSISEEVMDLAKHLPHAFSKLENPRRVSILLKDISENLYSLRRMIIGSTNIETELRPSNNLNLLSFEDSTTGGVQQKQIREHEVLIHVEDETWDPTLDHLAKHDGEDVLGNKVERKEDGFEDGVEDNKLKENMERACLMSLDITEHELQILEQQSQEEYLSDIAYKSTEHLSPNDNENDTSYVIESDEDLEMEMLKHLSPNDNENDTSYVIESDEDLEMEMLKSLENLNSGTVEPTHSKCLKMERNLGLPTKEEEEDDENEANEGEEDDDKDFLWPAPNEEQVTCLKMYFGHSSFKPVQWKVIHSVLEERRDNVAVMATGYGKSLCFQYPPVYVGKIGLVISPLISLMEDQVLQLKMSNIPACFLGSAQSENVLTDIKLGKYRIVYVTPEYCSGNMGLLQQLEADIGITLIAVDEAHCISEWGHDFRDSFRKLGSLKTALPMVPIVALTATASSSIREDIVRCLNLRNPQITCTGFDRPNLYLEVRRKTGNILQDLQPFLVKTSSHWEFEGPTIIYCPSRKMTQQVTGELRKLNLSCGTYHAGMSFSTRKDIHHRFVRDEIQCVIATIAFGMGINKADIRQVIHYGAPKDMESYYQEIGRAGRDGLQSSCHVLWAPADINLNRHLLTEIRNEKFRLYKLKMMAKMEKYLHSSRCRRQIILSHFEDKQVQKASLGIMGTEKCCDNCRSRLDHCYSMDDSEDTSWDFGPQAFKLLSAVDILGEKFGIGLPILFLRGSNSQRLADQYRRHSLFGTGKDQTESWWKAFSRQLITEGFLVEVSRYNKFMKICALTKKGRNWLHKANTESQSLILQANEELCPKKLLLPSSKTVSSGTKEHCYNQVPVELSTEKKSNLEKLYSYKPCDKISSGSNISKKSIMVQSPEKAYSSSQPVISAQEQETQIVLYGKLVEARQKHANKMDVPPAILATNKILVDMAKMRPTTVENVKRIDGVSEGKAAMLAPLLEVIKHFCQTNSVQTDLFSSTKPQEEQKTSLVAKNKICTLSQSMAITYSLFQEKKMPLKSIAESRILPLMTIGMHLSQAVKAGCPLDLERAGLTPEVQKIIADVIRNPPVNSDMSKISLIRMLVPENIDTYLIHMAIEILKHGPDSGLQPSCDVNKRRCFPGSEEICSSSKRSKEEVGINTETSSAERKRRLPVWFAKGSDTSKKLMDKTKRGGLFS

What is called IC50 is the midpoint of a concentration-inhibition curve. A high value points to lower potency. In data set [1] (Homo sapiens, 120 h), `CCc1c(N2CCN(C(=O)c3ncnc(C)c3O)CC2)c(=O)n2nc(C3=CCOCC3)nc2n1CC(=O)Nc1ccc2c3c1ccn3CCC2` [Compound H24] came in with an IC50 of 474 nM.
Consider `CCc1c(N2CCN(C(=O)c3ncnc(C)c3O)C[C@@H]2C)c(=O)n2nc(C3=CCOCC3)nc2n1CC(=O)Nc1ccc(C(F)(F)F)c2ccsc12` [Compound H17], for which the half-maximal inhibitory concentration (IC50) in data set [1] (Homo sapiens, 120 h) is 123 nM; in data set [2] it was above 10000 nM.
For orientation: CLint scaled means a measure of how fast metabolising enzymes remove a compound, apart from limits set by blood flow. Read a high CLint scaled as rapid turnover. Regarding `CCc1c(N2CCN(C(=O)c3ncnc(C)c3O)CC2)c(=O)n2nc(C3=CCOCC3)nc2n1CC(=O)Nc1ccc(C(F)(F)F)c2scnc12` [Compound H21], in data set [1] (Homo sapiens, 120 h), inhibition was half-maximal at 175 nM (IC50). Moreover, in data set [2], the IC50 is above 10000 nM. In data set [3], the CLint scaled at 1 μM amounted to 6 mL/min/kg and the microsomal CLint at 1 μM was determined as 4.8 µL/min/mg.
In turn, `CCc1c(N2CC3(CN(C(=O)c4ncnc(C)c4O)C3)C2)c(=O)n2nc(C3=CCOCC3)nc2n1CC(=O)Nc1ccc(C(F)(F)F)cc1Cl` [Compound P1] gave an IC50 against WRN helicase of 3890 nM.
Turning to `CCc1c(N2CCN(C(=O)c3ncccc3O)CC2)c(=O)n2nc(-c3cncs3)nc2n1CC(=O)Nc1ccc(C(F)(F)F)cc1Cl` [Compound P5], in data set [1] (Homo sapiens, 120 h), it took 192 nM to reach half-maximal inhibition (IC50).
On to `CCc1c(N2CCN(C(=O)c3ncnc(C)c3O)CC2)c(=O)n2nc(C3=CCOCC3)nc2n1CC(=O)Nc1ccc(Br)c2ccoc12` [Compound H25], for which the IC50 in data set [1] (Homo sapiens, 120 h) is 125 nM.
`Cc1ncnc(C(=O)N2CCN(c3c(C4CC4)n(CC(=O)Nc4ccc(C(F)(F)F)c5ccsc45)c4nc(C5=CCOCC5)nn4c3=O)CC2)c1O` [Compound H18] had an IC50 in data set [2] above 10000 nM.
Turning to `CCc1c(N2CCN(C(=O)c3ncnc(C)c3O)CC2)c(=O)n2nc(C3=CCOCC3)nc2n1CC(=O)Nc1ccc(Cl)c2ccoc12` [Compound H26], half-maximal inhibition in data set [1] (Homo sapiens, 120 h) (IC50) was put at 137 nM.
For the molecule `CCc1c(N2CCN(C(=O)c3ncccc3O)CC2)c(=O)n2nc(-c3cccs3)nc2n1CC(=O)Nc1ccc(C(F)(F)F)cc1Cl` [Compound P4], the IC50 in data set [1] was 135 nM; at WRN helicase, 1.9 nM.
With `CCc1c(N2CCN(C(=O)c3ncnc(C)c3O)CC2)c(=O)n2nc(C3=CCOCC3)nc2n1CC(=O)Nc1ccc2c3c1ncn3CCC2` [Compound H23], the concentration for half-maximal inhibition (IC50) in data set [1] (Homo sapiens, 120 h) is above 10000 nM; in data set [2], above 10000 nM.
`CCc1c(N2CCN(C(=O)c3ncnc(C)c3O)CC2)c(=O)n2nc(C3=CCOCC3)nc2n1CC(=O)Nc1ccc2c(C(F)(F)F)c[nH]c2c1` [Compound H6] yielded an IC50 on WRN helicase of 625 nM.
Take `CCc1c(N2CCN(C(=O)c3ncccc3O)CC2)c(=O)n2nc(C3=CCOCC3)nc2n1CC(=O)Nc1ccc(C(F)(F)F)c2c1OCCO2` [Compound H7]: the IC50 in data set [1] (Homo sapiens, 120 h) stood at 1940 nM; against WRN helicase, 9.5 nM.
Turning to `CCc1c(N2CCN(C(=O)c3ncccc3O)CC2)c(=O)n2nc(-c3cccnc3)nc2n1CC(=O)Nc1ccc(C(F)(F)F)cc1C` [Compound A1, reference compound], in data set [1] (setting [5]), the inhibition at 38.15 pM is -0.406%, the inhibition at 0.000152588 µM is -9.39%, the inhibition at 0.000610352 µM is -2.32% and the inhibition at 0.00244141 µM was -11.4%. Besides, in data set [1] (setting [5]), the inhibition at 0.00976562 µM was -4.03%, the inhibition at 0.0390625 µM is -11.9%, the inhibition at 0.15625 µM turned out to be 6.4% and the inhibition at 0.625 µM stood at 97.4%. In data set [1] (setting [5]), the inhibition at […] stood at 101% and the inhibition at 10 µM is 102%. In data set [1] (setting [6]), the inhibition at 38.15 pM was -2%, the inhibition at 0.000152588 µM is -13.2%, the inhibition at 0.000610352 µM is -2.37% and the inhibition at 0.00244141 µM was -13.8%. Besides, in data set [1] (setting [6]), the inhibition at 0.00976562 µM stood at 0.0311%, the inhibition at 0.0390625 µM was -12.6%, the inhibition at 0.15625 µM was -2.14% and the inhibition at 0.625 µM was 97.9%. In data set [1] (setting [6]), the inhibition at […] came out at 99.8% and the inhibition at 10 µM was 101%. For the same molecule, in data set [1] (setting [7]), the inhibition at 38.15 pM was 1.19%, the inhibition at 0.000152588 µM is -5.61%, the inhibition at 0.000610352 µM was -2.27% and the inhibition at 0.00244141 µM was -8.9%. In addition, in data set [1] (setting [7]), the inhibition at 0.00976562 µM was -8.09%, the inhibition at 0.0390625 µM was -11.1%, the inhibition at 0.15625 µM was 14.9% and the inhibition at 0.625 µM is 96.9%. For the same molecule, in data set [1] (setting [7]), the inhibition at […] turned out to be 101% and the inhibition at 10 µM came to 102%. The same molecule registered an IC50 in data set [1] (Homo sapiens, 120 h) of 261 nM. Besides, in data set [4], the F turned out to be 14%.
Take `CCc1c(N2CCN(C(=O)c3ncnc(C)c3O)CC2)c(=O)n2nc(C3=CCOCC3)nc2n1CC(=O)Nc1ccc2c(c1)NCC2(O)C(F)(F)F` (centres unmarked) [Compound H5]: on WRN helicase, the IC50 turned out to be 295 nM.
With `CCc1c(N2CCN(C(=O)c3ncccc3O)CC2)c(=O)n2nc(C3=CCS(=O)(=O)CC3)nc2n1CC(=O)Nc1ccc(C(F)(F)F)cc1Cl` [Compound P6], the midpoint of inhibition against WRN helicase, the IC50, lay at 3.5 nM.
As to `CCc1c(N2CCN(C(=O)c3ncccc3O)CC2)c(=O)n2nc(C3=CCOCC3)nc2n1CC(=O)NC12CC(C(F)(F)F)(C1)C2` [Compound A2, reference compound], the IC50 is 2540 nM in data set [1] (Homo sapiens, 120 h) and 16 nM at WRN helicase.
The molecule `CCc1c(N2CCN(C(=O)c3ncnc(C)c3O)CC2)c(=O)n2nc(C3=CCC(OC)CC3)nc2n1CC(=O)Nc1ccc(C(F)(F)F)c2ccsc12` (centres unmarked) [Compound H12] returned an IC50 in data set [1] (Homo sapiens, 120 h) of 126 nM. Moreover, the IC50 in data set [2] was above 10000 nM. Further, in data set [3], the intrinsic metabolic clearance (CLint scaled) at 1 μM came out at 28 mL/min/kg and the microsomal CLint at 1 μM stood at 22 µL/min/mg.
